Measurements from patent US8476253B2, “Amide derivative” (Daiichi Sankyo Company, Limited, priority 2009, dated 2013).
Where a name gives a salt, the structure may show the parent alone. Read-outs that look alike come from different tables or passages of the source.

Experiments:
neurokinin NK1 receptor = target: T1, neurokinin NK1 receptor (Cavia porcellus, UniProt P30547); test: Effect of suppressing substance P-induced airway contraction (in vivo, intratracheal administration); design: species or system guinea pig; settings: guinea pig; guinea pigs, intratracheal administration 60 minutes before 20 μg/kg i.v. SP; AUC of increase in airway pressure over 10 minutes; read-out: ID50 (the source's name)
T1 construct: Using healthy guinea pigs (body weight, 350 to 550 g; Hartley male guinea pigs); from tissue; host or cells: live anaesthetised Hartley male guinea pigs (airway, in vivo)
Method: Using healthy guinea pigs (body weight, 350 to 550 g; Hartley male guinea pigs), the effect of suppressing airway contraction induced by substance P (SP), which is an NK1 receptor agonist, was examined by a modified method of Konzett-Roessler (Naunyn-Schmiedebergs Arch. Exp. Pathol. Pharmakol. 195, 71 [1940]) using airway pressure as an indicator.
A tracheal cannula and a venous cannula were attached to a guinea pig anesthetized with pentobarbital (50 mg/mL solution, 0.40 to 0.50 mL/body, subcutaneous administration). An arterial cannula filled with heparin-containing physiological saline (100 U/mL) was further attached, and blood pressure and heart rate were monitored via an amplifier and an instantaneous heart rate meter. Subsequently, gallamine (20 mg/body, intravenous administration) was administered to terminate spontaneous breathing, and then 10 mL/kg of positive pressure breathing (Ugo-Basile Biological Research Apparatus, Cat. No. 7025) was rapidly performed at 60 times/min. The airway pressure during artificial breathing was detected with a pressure transducer (TP-200T or TP-400T; Nihon Kohden Corporation) attached to a side branch of the tracheal cannula, amplified (AP-601G; Nihon Kohden Corporation), and recorded in a recorder. After the airway pressure, blood pressure, and heart rate were stabilized, 20 μg/kg of SP was intravenously administered from the venous cannula to induce airway contraction, and the airway pressure was measured for the following 10 minutes.
The test substance was dissolved in a 5% glucose solution, a 0.5 mL/kg solution was intratracheally administered with an intratracheal administration apparatus (model 1A-1B; Penn-Century, Inc.) 60 minutes before stimulation with SP.
The AUC of increase in the airway pressure over 10 minutes after administration of SP was determined as the intensity of SP-induced airway contraction and calculated as an ID50 value from the inhibition rate based on the value of the control group (5% glucose solution intratracheal administration group).

substance P receptor = target: T2, substance P receptor (Cavia porcellus, UniProt P30547); test: Test for binding to guinea-pig substance P receptor (crude lung membrane sample); settings: crude guinea-pig lung membrane sample, [3H]substance P; Ki from IC50 and Kd; read-out: Ki
T2 construct: A preparation of a crude lung membrane sample was prepared; from tissue; host or cells: guinea-pig lung (crude membrane sample)
Method: A preparation of a crude lung membrane sample was prepared, and a test for binding of a test substance to the sample was performed according to the method described in EP0336230A2.
The binding effect of the test substance to a substance P receptor was calculated as an affinity (Ki) of the test substance for the substance P receptor from a 50% binding concentration (IC50) and an affinity (Kd) of [^3H]substance P for the substance P receptor.

human M3 receptor = target: T3, human M3 receptor (Homo sapiens, UniProt P20309); test: Test for binding to human M3 receptor
T3 construct: expressed in transfected cells; host or cells: CHO cells
Outline: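 CHO-cell crude membranes expressing human M3 were incubated with [N-methyl-3H]-(−)-scopolamine methyl chloride in 50 mM Tris-HCl, 0.5 mM EDTA, pH 7.4, for 60 min at room temperature. Bound ligand was collected on PEI-pretreated glass-fibre filters and counted by liquid scintillation. Ki was calculated from IC50 and the radioligand Kd.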

muscarine M3 receptor = test: Effect of suppressing methacholine-induced airway contraction (in vivo, intratracheal administration); design: species or system guinea pig; settings: guinea pigs, intratracheal administration 60 minutes before 30 μg/kg i.v. methacholine; AUC of increase in airway pressure over 10 minutes
Outline: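 Anesthetized, gallamine-paralysed, ventilated male Hartley guinea pigs (350–550 g); compound in 5% glucose given intratracheally 60 min before 30 μg/kg i.v. methacholine. Airway pressure AUC over 10 min scored; ID50 from inhibition versus 5% glucose vehicle group.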

[1] = CHO cells expressing human M3 receptor, [N-methyl-3H]-(-)-Scopolamine methyl chloride 0.5 nM, Ki from IC50 and Kd, read-out: Ki

T1 sequence (P30547 whole entry): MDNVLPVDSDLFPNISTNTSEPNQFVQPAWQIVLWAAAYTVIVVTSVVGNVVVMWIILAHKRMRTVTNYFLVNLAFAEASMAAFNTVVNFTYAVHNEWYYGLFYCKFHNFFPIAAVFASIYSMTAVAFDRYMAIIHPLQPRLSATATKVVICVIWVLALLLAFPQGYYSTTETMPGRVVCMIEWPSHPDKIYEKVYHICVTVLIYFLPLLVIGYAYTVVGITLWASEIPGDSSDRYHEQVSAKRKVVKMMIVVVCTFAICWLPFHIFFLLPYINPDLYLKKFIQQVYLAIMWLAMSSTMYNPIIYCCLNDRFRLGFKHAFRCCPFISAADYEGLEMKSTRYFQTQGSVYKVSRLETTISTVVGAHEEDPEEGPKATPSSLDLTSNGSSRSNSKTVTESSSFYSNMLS
T2 sequence (P30547 whole entry): as above
T3 sequence (P20309 whole entry): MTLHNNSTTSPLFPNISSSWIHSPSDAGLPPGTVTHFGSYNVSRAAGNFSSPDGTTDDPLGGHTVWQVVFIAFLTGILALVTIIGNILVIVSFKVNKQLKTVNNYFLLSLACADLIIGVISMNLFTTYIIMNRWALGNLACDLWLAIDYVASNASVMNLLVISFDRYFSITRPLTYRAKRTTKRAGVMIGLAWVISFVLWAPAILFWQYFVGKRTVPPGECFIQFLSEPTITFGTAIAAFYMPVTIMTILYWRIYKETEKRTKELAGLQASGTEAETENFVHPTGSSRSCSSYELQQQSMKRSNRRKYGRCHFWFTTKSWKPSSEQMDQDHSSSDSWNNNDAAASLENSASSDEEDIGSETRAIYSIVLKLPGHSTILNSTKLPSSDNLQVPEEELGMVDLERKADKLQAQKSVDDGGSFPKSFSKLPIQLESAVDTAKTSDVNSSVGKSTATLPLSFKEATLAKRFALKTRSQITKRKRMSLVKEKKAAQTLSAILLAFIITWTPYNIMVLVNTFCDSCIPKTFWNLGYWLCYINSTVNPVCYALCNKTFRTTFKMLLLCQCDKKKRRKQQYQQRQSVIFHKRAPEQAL

| Structure (SMILES) | ED50 (neurokinin NK1 receptor) [mg/kg] | Ki (substance P receptor) [nM] | Ki (human M3 receptor) [nM] | ID50 (muscarine M3 receptor) [mg/kg] | Ki (human M3 receptor; [1]) [nM] |
| --- | --- | --- | --- | --- | --- |
| CN(CCN1CCC(OC(=O)Nc2ccccc2-c2ccccc2)CC1)C(=O)COCCCNc1ccc(C(=O)N(C)CCCN(C)C(=O)CO[C@H]2Cc3ccccc3C23CCN(CC[C@@]2(c4ccc(F)cc4)CN(C(=O)c4cc(C(F)(F)F)cc(C(F)(F)F)c4)CO2)CC3)cc1 [Example 27, 1-{2-[{[3-({4-[{3-[({[(2S)-1′-{2-[(5R)-3-[3,5-Bis(trifluoromethyl)benzoyl]-5-(4-fluorophenyl)-1,3-oxazolidin-5-yl]ethyl}-2,3-dihydrospiro[indene-1,4′-piperidin]-2-yl]oxy}acetyl)(methyl)amino]propyl}(methyl)carbamoyl]phenyl}amino)propoxy]acetyl}(methyl)amino]ethyl}piperidin-4-yl biphenyl-2-ylcarbamate trihydrochloride] | 0.0229 | 1.2 | 1.4 | 0.0218 | – |
| CN(CCN1CCC(OC(=O)Nc2ccccc2-c2ccccc2)CC1)C(=O)CCOCCNc1ccc(C(=O)N(C)CCCN(C)C(=O)CO[C@H]2Cc3ccccc3C23CCN(CC[C@@]2(c4ccc(F)cc4)CN(C(=O)c4cc(C(F)(F)F)cc(C(F)(F)F)c4)CO2)CC3)cc1 [Example 29, 1-{2-[{3-[2-({4-[{3-[({[(2S)-1′-{2-[(5R)-3-[3,5-Bis(trifluoromethyl)benzoyl]-5-(4-fluorophenyl)-1,3-oxazolidin-5-yl]ethyl}-2,3-dihydrospiro[indene-1,4′-piperidin]-2-yl]oxy}acetyl)(methy)amino]propyl}(methyl)carbamoyl]phenyl}amino)ethoxy]propanoyl}(methyl)amino]ethyl}piperidin-4-yl biphenyl-2-ylcarbamate trihydrochloride] | 0.0292 | 1.4 | – | 0.0266 | 1.7 |
| Cc1cc(NCCCCCC(=O)N(C)CCN2CCC(OC(=O)Nc3ccccc3-c3ccccc3)CC2)sc1C(=O)N(C)CCCN(C)C(=O)CO[C@H]1Cc2ccccc2C12CCN(CC[C@@]1(c3ccc(F)cc3)CN(C(=O)c3cc(C(F)(F)F)cc(C(F)(F)F)c3)CO1)CC2 [Example 30, 1-(2-{[6-({5-[{3-[({[(2S)-1′-{2-[(5R)-3-[3,5-Bis(trifluoromethyl)benzoyl]-5-(4-fluorophenyl)-1,3-oxazolidin-5-yl]ethyl}-2,3-dihydrospiro[indene-1,4′-piperidin]-2-yl]oxy}acetyl)(methyl)amino]propyl}(methyl)carbamoyl]-4-methyl-2-thienyl}amino)hexanoyl](methyl)amino}ethyl)piperidin-4-yl biphenyl-2-ylcarbamate trihydrochloride] | 0.0388 | 1.9 | 0.62 | 0.0088 | – |
| CN(CCN1CCC(OC(=O)Nc2ccccc2-c2ccccc2)CC1)C(=O)CCCCNc1ccc(C(=O)N(C)CCCN(C)C(=O)CO[C@H]2Cc3ccccc3C23CCN(CC[C@@]2(c4ccc(F)cc4)CN(C(=O)c4cc(C(F)(F)F)cc(C(F)(F)F)c4)CO2)CC3)cc1 [Example 32, 1-(2-{[5-({4-[{3-[({[(2S)-1′-{2-[(5R)-3-[3,5-Bis(trifluoromethyl)benzoyl]-5-(4-fluorophenyl)-1,3-oxazolidin-5-yl]ethyl}-2,3-dihydrospiro[indene-1,4′-piperidin]-2-yl]oxy}acetyl)(methyl)amino]propyl}(methyl)carbamoyl]phenyl}amino)pentanoyl](methyl)amino}ethyl)piperidin-4-yl biphenyl-2-ylcarbamate trihydrochloride] | 0.0202 | 1.3 | 1.1 | 0.0356 | – |
| CN(CCN1CCC(OC(=O)Nc2ccccc2-c2ccccc2)CC1)C(=O)CCCNc1ccc(C(=O)N(C)CCCN(C)C(=O)CO[C@H]2Cc3ccccc3C23CCN(CC[C@@]2(c4ccc(F)cc4)CN(C(=O)c4cc(C(F)(F)F)cc(C(F)(F)F)c4)CO2)CC3)cc1 [Example 34, 1-(2-{[4-({4-[{3-[({[(2S)-1′-{2-[(5R)-3-[3,5-Bis(trifluoromethyl)benzoyl]-5-(4-fluorophenyl)-1,3-oxazolidin-5-yl]ethyl}-2,3-dihydrospiro[indene-1,4′-piperidin]-2-yl]oxy}acetyl)(methyl)amino]propyl}(methyl)carbamoyl]phenyl}amino)butanoyl](methyl)amino}ethyl)piperidin-4-yl biphenyl-2-ylcarbamate trihydrochloride] | 0.0308 | 1 | 1.5 | 0.0251 | – |
| CN(CCN1CCC(OC(=O)Nc2ccccc2-c2ccccc2)CC1)C(=O)CCCN(C)c1ccc(C(=O)N(C)CCCN(C)C(=O)CO[C@H]2Cc3ccccc3C23CCN(CC[C@@]2(c4ccc(F)cc4)CN(C(=O)c4cc(C(F)(F)F)cc(C(F)(F)F)c4)CO2)CC3)cc1 [Example 36, 1-{2-[{4-[{4-[{3-[({[(2S)-1′-{2-[(5R)-3-[3,5-Bis(trifluoromethyl)benzoyl]-5-(4-fluorophenyl)-1,3-oxazolidin-5-yl]ethyl}-2,3-dihydrospiro[indene-1,4′-piperidin]-2-yl]oxy}acetyl)(methyl)amino]propyl}(methyl)carbamoyl]phenyl}(methyl)amino]butanoyl}(methyl)amino]ethyl}piperidin-4-yl biphenyl-2-ylcarbamate trihydrochloride] | 0.0236 | 1.4 | 1.8 | 0.0146 | – |
| CN(CCN1CCC(OC(=O)Nc2ccccc2-c2ccccc2)CC1)C(=O)CCCCN(C)c1ccc(C(=O)N(C)CCCN(C)C(=O)CO[C@H]2Cc3ccccc3C23CCN(CC[C@@]2(c4ccc(F)cc4)CN(C(=O)c4cc(C(F)(F)F)cc(C(F)(F)F)c4)CO2)CC3)cc1 [Example 38, 1-{2-[{5-[{4-[{3-[({[(2S)-1′-{2-[(5R)-3-[3,5-Bis(trifluoromethyl)benzoyl]-5-(4-fluorophenyl)-1,3-oxazolidin-5-yl]ethyl}-2,3-dihydrospiro[indene-1,4′-piperidin]-2-yl]oxy}acetyl)(methy)amino]propyl}(methyl)carbamoyl]phenyl}(methyl)amino]pentanoyl}(methyl)amino]ethyl}piperidin-4-yl biphenyl-2-ylcarbamate trihydrochloride] | 0.0161 | 1.5 | – | 0.0257 | 1.8 |
| CN(CCN1CCC(OC(=O)Nc2ccccc2-c2ccccc2)CC1)C(=O)CCCCCCN(C)c1ccc(C(=O)N(C)CCCN(C)C(=O)CO[C@H]2Cc3ccccc3C23CCN(CC[C@@]2(c4ccc(F)cc4)CN(C(=O)c4cc(C(F)(F)F)cc(C(F)(F)F)c4)CO2)CC3)cc1 [Example 40, 1-{2-[{7-[{4-[{3-[({[(2S)-1′-{2-[(5R)-3-[3,5-Bis(trifluoromethyl)benzoyl]-5-(4-fluorophenyl)-1,3-oxazolidin-5-yl]ethyl}-2,3-dihydrospiro[indene-1,4′-piperidin]-2-yl]oxy}acetyl)(methyl)amino]propyl}(methyl)carbamoyl]phenyl}(methyl)amino]heptanoyl}(methyl)amino]ethyl}piperidin-4-yl biphenyl-2-ylcarbamate trihydrochloride] | 0.0191 | 1.6 | 2 | 0.0754 | – |
